Read-outs that look alike come from different tables or passages of the source.
Assays:
PARG [1] = target: T1, PARG (Homo sapiens, UniProt Q86W56); experiment: Inhibition of PARG enzymatic assay (TR-FRET enzymatic IC50 assay); assay type: biochemical; design: purchased Peak Proteins; conditions: hPARG 250 pM, biotinylated-PARylated PARP substrate 30 nM
Experimental: PARG enzyme was incubated with compound or vehicle (DMSO) and the biotinylated-PARylated PARP substrate in a microtiter plate. After adding detection antibody and streptavidin-europium, and then incubating, the plate was read for fluorescence intensity. The low control (DMSO) with low fluorescence intensity represents no inhibition of enzymatic reaction while the high control (no enzyme) with high fluorescence intensity represents full inhibition of enzymatic reaction.
• PARG • hPARG: 250 pM, His-tagged, Peak Proteins, 0.96 mg/mL (8.58 μM) • Substrate: 30 nM • Reaction time: 70 minutes • Substrate: hPARP1, His- and TEV-tagged, Peak Proteins, 14 μM • Detection Antibody: anti-His monoclonal antibody-ULight, Perkin Elmer catalog #TRF0105-M • Streptavidin-Europium: Perkin Elmer catalog #AD0062 • Assay buffer: 50 mM Tris-HCl pH 7.4, 50 mM KCl, 3 mM EDTA, 0.4 mM EGTA, 1 mM DTT, 0.01% Tween 20, 0.01% BSA • Temperature: 23° C. • Total volume: 20 μL
• 0% inhibition control: DMSO • 100% inhibition control: No enzyme
• 1. Transfer 5 μL of 3× final concentration of test compounds or DMSO to the appropriate wells of a microtiter plate. • 2. Centrifuge the plate at 1000 rpm for 1 minute. • 3. Transfer 5 μL of 3× final concentration of enzyme in assay buffer or assay buffer alone to the appropriate wells. • 4. Centrifuge the plate at 1000 rpm for 1 minute. • 5. Incubate the plate at room temperature for 1 hour. • 6. Transfer 5 μL of 3× substrate in assay buffer to all the test wells. • 7. Centrifuge the plate at 1000 rpm for 1 minute. • 8. Incubate the plate at room temperature for 10 minutes. • 9. Transfer 5 μL of 3× mixture of detection antibody and streptavidin-europium in assay buffer to all the test wells. • 10. Centrifuge the plate at 1000 rpm for 1 minute. • 11. Incubate the plate at room temperature for 1 hour. • 12. Read the plate on a plate reader (e.g., Infinite M1000).

[2] = system: HCC1806-XRCC1 KD (knock down) cells; experiment: Cellular viability assay (Cell Titer-Glo); assay type: cell-based; conditions: HCC1806-shXRCC1 cells, 4 days of incubation, read-out: PARGi cell viability
Experimental: HCC1806-XRCC1 KD (knock down) cells were plated at 2000 cells/well in 96-well white plates with clear flat bottom. After 24 hours, the compounds of the disclosure were added starting at 30 μM for a 9-point dose response curve at 1:3 dilution. The compounds of the disclosure were added by Tecan digital dispenser excluding the outermost wells of the plate. All treatments were done in duplicates. After 4 days of incubation, 50 ul of Cell Titer-Glo (Promega) was added per well. After incubation with the reagent for 15 minutes, luminescence was read using a plate reader (TECAN). Average values of DMSO treated wells in a plate was calculated. All data points were normalized to that of the average DMSO value. The % of control for each sample compared to DMSO treated control samples. Curves are fit as % of control vs. log [compound concentration] using a 4 parameter inhibition model (Levenberg-Marquardt algorithm):
Fit=(A+((B−A)/(1+((C/x)^D))))

PARG [3] = target: T1, PARG; experiment: Inhibition of PARG cellular assay (PAR foci in HeLa cells after MMS); assay type: cell-based; design: endogenous in cells; host or cells: HeLa; conditions: compound 1 h then MMS 1 h
Experimental: The ability of the compounds disclosed herein to inhibit PARG was determined as described below. Briefly, after treating HeLa cells with the compounds of the disclosure for 1 h, followed by treatment with DNA alkylating agent methylmethanesulfonate (MMS) for an additional 1 h, the cells were fixed in 3.7% formaldehyde. The cells were permeabilized in 0.5% Triton-X100, blocked in 5% goat serum, and incubated with mouse monoclonal antibody against poly (ADP) ribose (PAR) polymer overnight at 4° C. The cells were washed and incubated with an Alexafluor 488-linked secondary antibody together with a nuclear stain (Hoechst 33342) for an hour at room temperature. After washing, images of the cells were captured and analyzed on a high content imaging microscope and software. Two measurement of PAR chain were quantified with the mean intensity over background of the nuclear foci (fluorescent signal at 488 nm range 0.3-2.0 μm foci) quantified as PAR foci (PAR Foci IC50). The cells with a PAR foci signal >1.3 was considered as positive (PAR % positive IC50), and the percentage positive cells are quantified.

T1 sequence (Q86W56 whole entry): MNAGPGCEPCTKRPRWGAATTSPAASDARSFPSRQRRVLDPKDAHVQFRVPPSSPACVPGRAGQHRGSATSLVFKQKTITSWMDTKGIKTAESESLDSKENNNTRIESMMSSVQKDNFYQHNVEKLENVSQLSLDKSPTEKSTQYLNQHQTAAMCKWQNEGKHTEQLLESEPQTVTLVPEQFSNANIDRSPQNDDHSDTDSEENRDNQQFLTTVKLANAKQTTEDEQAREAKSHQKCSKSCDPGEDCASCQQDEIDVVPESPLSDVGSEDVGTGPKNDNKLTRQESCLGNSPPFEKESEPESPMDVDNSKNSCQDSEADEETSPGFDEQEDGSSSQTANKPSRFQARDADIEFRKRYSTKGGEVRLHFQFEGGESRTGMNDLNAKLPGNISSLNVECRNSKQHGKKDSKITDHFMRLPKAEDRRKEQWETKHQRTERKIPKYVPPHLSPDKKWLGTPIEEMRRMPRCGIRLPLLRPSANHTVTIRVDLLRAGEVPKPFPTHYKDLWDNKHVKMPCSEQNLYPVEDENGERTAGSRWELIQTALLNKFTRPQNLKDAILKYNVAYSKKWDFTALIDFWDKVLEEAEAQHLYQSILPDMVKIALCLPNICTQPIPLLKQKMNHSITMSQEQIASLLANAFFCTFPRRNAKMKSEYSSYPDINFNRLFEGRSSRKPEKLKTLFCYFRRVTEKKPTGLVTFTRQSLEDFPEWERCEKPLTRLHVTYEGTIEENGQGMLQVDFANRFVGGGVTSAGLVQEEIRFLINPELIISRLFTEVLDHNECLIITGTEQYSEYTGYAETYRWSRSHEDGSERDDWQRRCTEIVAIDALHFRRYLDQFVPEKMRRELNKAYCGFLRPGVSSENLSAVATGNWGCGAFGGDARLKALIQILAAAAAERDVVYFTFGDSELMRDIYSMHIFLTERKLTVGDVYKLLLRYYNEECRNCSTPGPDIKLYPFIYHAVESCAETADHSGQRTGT

Compound	IC50 (PARG [1]) [nM]	IC50 ([2]; 96 h) [nM]	IC50 [2] [nM]	IC50 (PARG [3]) [nM]
N#CC1(NS(=O)(=O)c2cc(N3CC[C@H]4COC[C@H]4C3)c3cnn(-c4nnc(C(F)F)s4)c3c2)CC1 (relative stereo) [Example 56, 1-[({1-[5-(difluoromethyl)(1,3,4-thiadiazol-2-yl)]-4-(cis-8-oxa-3-azabicyclo-[4.3.0]non-3-yl)-1H-indazol-6-yl}sulfonyl)amino]cyclopropanecarbonitrile]	300 to 1000	10000 to 20000	–	–
[4-(1-[5-(difluoromethyl)(1,3,4-thiadiazol-2-yl)]-6-{[(cyanocyclopropyl)amino]sulfonyl}(1H-indazol-4-yl))(1,4-diazaperhydroepinyl)]-N-methylcarboxamide [Example 31]	300 to 1000	–	10000 to 20000	–
CNC(=O)C1CCN(c2cc(S(=O)(=O)NC3(C#N)CC3)cc3c2cnn3-c2nnc(C(F)F)s2)C1 (stereo not drawn) [Example 53, [1-(1-[5-(difluoromethyl)(1,3,4-thiadiazol-2-yl)]-6-{[(cyanocyclopropyl)amino]sulfonyl}(1H-indazol-4-yl))pyrrolidin-3-yl]-N-methylcarboxamide]	100 to 300	10000 to 20000	–	–
CN1CCCN(c2cc(S(=O)(=O)NC3(C#N)CC3)cc3c2cnn3-c2nnc(C(F)F)s2)CC1 [Example 63, 1-[({1-[5-(difluoromethyl)(1,3,4-thiadiazol-2-yl)]-4-(4-methyl(1,4-diazaperhydroepinyl))-1H-indazol-6-yl}sulfonyl)amino]cyclopropanecarbonitrile]	≤ 100	10000 to 20000	–	–
CN(C)C(=O)c1ccc(-c2cc(S(=O)(=O)NC3(C#N)CC3)cc3c2cnn3-c2nnc(C(F)F)s2)cc1 [Example 3, [4-(1-[5-(difluoromethyl)(1,3,4-thiadiazol-2-yl)]-6-{[(cyanocyclopropyl)amino]sulfonyl}(1H-indazol-4-yl))phenyl]-N,N-dimethylcarboxamide]	100 to 300	10000 to 20000	–	–
CNC(=O)N1CCN(c2cc(S(=O)(=O)NC3(C#N)CC3)cc3c2cnn3-c2nnc(C(F)F)s2)CC1 [Example 74, 4-(6-(N-(1-cyanocyclopropyl)sulfamoyl)-1-(5-(difluoromethyl)-1,3,4-thiadiazol-2-yl)-1H-indazol-4-yl)-N-methylpiperazine-1-carboxamide]	≤ 100	1000 to 10000	–	–
CN1CC2(CCN(c3cc(S(=O)(=O)NC4(C#N)CC4)cc4c3cnn4-c3nnc(C(F)F)s3)CC2)C1 [Example 92, 1-[({1-[5-(difluoromethyl)(1,3,4-thiadiazol-2-yl)]-4-(2-methyl-2,7-diazaspiro-[3.5]non-7-yl)-1H-indazol-6-yl}sulfonyl)amino]cyclopropanecarbonitrile]	300 to 1000	10000 to 20000	–	–
N#CC1(NS(=O)(=O)c2cc(-c3ccc4cn[nH]c4c3)c3cnn(-c4nnc(C(F)F)s4)c3c2)CC1 [Example 2, 1-[({4-(1H-indazol-6-yl)-1-[5-(difluoromethyl)(1,3,4-thiadiazol-2-yl)]-1H-indazol-6-yl}sulfonyl)amino]cyclopropanecarbonitrile]	1000 to 10000	20000 to 30000	–	–
CN(C)CCN(C)C(=O)N1CCN(c2cc(S(=O)(=O)NC3(C#N)CC3)cc3c2cnn3-c2nnc(C(F)F)s2)CC1 [Example 76, [4-(1-[5-(difluoromethyl)(1,3,4-thiadiazol-2-yl)]-6-{[(cyanocyclopropyl)amino]sulfonyl}(1H-indazol-4-yl))piperazinyl]-N-[2-(dimethylamino)ethyl]-N-methylcarboxamide]	≤ 100	1000 to 10000	–	–
N#CC1(NS(=O)(=O)c2cc(N3CCC4(COC4)C3)c3cnn(-c4nnc(C(F)F)s4)c3c2)CC1 [Example 34, 1-[({1-[5-(difluoromethyl)(1,3,4-thiadiazol-2-yl)]-4-(2-oxa-6-azaspiro[3.4]oct-6-yl)-1H-indazol-6-yl}sulfonyl)amino]cyclopropanecarbonitrile]	300 to 1000	20000 to 30000	–	–
CN(C)C(=O)C1CCN(c2cc(S(=O)(=O)NC3(C#N)CC3)cc3c2cnn3-c2nnc(C(F)F)s2)C1 (stereo not drawn) [Example 54, [1-(1-[5-(difluoromethyl)(1,3,4-thiadiazol-2-yl)]-6-{[(cyanocyclopropyl)amino]sulfonyl}(1H-indazol-4-yl))pyrrolidin-3-yl]-N,N-dimethylcarboxamide]	100 to 300	10000 to 20000	–	–
CN(C)C(=O)c1cccc(-c2cc(S(=O)(=O)NC3(C#N)CC3)cc3c2cnn3-c2nnc(C(F)F)s2)c1 [Example 4, [3-(1-[5-(difluoromethyl)(1,3,4-thiadiazol-2-yl)]-6-{[(cyanocyclopropyl)amino]sulfonyl}(1H-indazol-4-yl))phenyl]-N,N-dimethylcarboxamide]	300 to 1000	20000 to 30000	–	–
N#CC1(NS(=O)(=O)c2cc(N3CCN4C(=O)OC[C@H]4C3)c3cnn(-c4nnc(C(F)F)s4)c3c2)CC1 [Example 61, 1-[({4-((1R)-7-oxo-8-oxa-3,6-diazabicyclo[4.3.0]non-3-yl)-1-[5-(difluoromethyl) (1,3,4-thiadiazol-2-yl)]-1H-indazol-6-yl}sulfonyl)amino]cyclopropanecarbonitrile]	≤ 100	1000 to 10000	–	–
N#CC1(NS(=O)(=O)c2cc(N3CCC4(CCOC4)CC3)c3cnn(-c4nnc(C(F)F)s4)c3c2)CC1 [Example 29, 1-[({1-[5-(difluoromethyl)(1,3,4-thiadiazol-2-yl)]-4-(2-oxa-8-azaspiro[4.5]dec-8-yl)-1H-indazol-6-yl}sulfonyl)amino]cyclopropanecarbonitrile]	100 to 300	–	–	300 to 1000
N#CC1(NS(=O)(=O)c2cc(N3CCC(C(F)F)CC3)c3cnn(-c4nnc(C(F)F)s4)c3c2)CC1 [Example 64, 1-[({1-[5-(difluoromethyl)(1,3,4-thiadiazol-2-yl)]-4-[4-(difluoromethyl)piperidyl]-1H-indazol-6-yl}sulfonyl)amino]cyclopropanecarbonitrile]	1000 to 10000	20000 to 30000	–	–
N#CC1(NS(=O)(=O)c2cc(-c3ccnnc3)c3cnn(-c4nnc(C(F)F)s4)c3c2)CC1 [Example 10, 1-[({1-[5-(difluoromethyl)(1,3,4-thiadiazol-2-yl)]-4-pyridazin-4-yl-1H-indazol-6-yl}sulfonyl)amino]cyclopropanecarbonitrile]	100 to 300	–	–	1000 to 10000
COC(=O)N1CCN(c2cc(S(=O)(=O)NC3(C#N)CC3)cc3c2cnn3-c2nnc(C(F)F)s2)CC1 [Example 58, methyl 4-(1-[5-(difluoromethyl)(1,3,4-thiadiazol-2-yl)]-6-{[(cyanocyclopropyl)amino]sulfonyl}-1H-indazol-4-yl)piperazinecarboxylate]	≤ 100	1000 to 10000	–	–
CN1Cc2cn(-c3cc(S(=O)(=O)NC4(C#N)CC4)cc4c3cnn4-c3nnc(C(F)F)s3)nc2C1 [Example 73, 1-[({1-[5-(difluoromethyl)(1,3,4-thiadiazol-2-yl)]-4-(5-methyl(3-pyrrolino[3,4-c]pyrazol-2-yl))-1H-indazol-6-yl}sulfonyl)amino]cyclopropanecarbonitrile]	100 to 300	–	–	1000 to 10000
